Experimental findings from PubChem BioAssay (NCI) are described below.

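Step 1: Grow cells in 96-well plates. Step 2: Expose to compound for 48 hours at 5 concentrations. Step 3: Interpolate endpoints linearly; if unreached, use highest concentration. GI50 is the concentration that inhibits growth by half. Definition used: TGI = concentration required for complete inhibition of growth.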

Test systems include RPMI-8226 leukemia; P388/ADR leukemia; DMS 114 small cell lung; SNB-75 CNS; KM20L2 colon; XF 498 CNS; M19-MEL melanoma; DMS 273 small cell lung; MCF7 breast; HL-60(TB) leukemia; SN12K1 renal; TK-10 renal; DU-145 prostate.
Holding throughout (assay): NCI tumour cell line growth inhibition, 48 h

In the case of `COc1ccc(CC(N)=O)cc1OC`, the TGI with RPMI-8226 leukemia, in the assay with P388/ADR leukemia, in the assay on DMS 114 small cell lung, in the assay on SNB-75 CNS, with KM20L2 colon and in the assay on XF 498 CNS was above 1250 µM throughout. In addition, the TGI with M19-MEL melanoma, in the assay with DMS 273 small cell lung, with MCF7 breast, with HL-60(TB) leukemia and with SN12K1 renal was above 1250 µM throughout.
For `C=C(CN(C)C)C(=O)c1ccc(C(=O)C(=C)CN(C)C)cc1`, the TGI in the assay with RPMI-8226 leukemia, with TK-10 renal, in the assay on SNB-75 CNS, in the assay with KM20L2 colon, in the assay on XF 498 CNS and with M19-MEL melanoma was above 100 µM each time. In addition, the TGI with HL-60(TB) leukemia and with DU-145 prostate was above 100 µM each time.
Regarding `O=C1NC(O)CCN1C1OC(CO)C(O)C1O` (stereo not drawn), the TGI is above 250 µM in the assay with RPMI-8226 leukemia; above 250 µM in the assay on P388/ADR leukemia; above 250 µM in the assay on DMS 114 small cell lung; above 250 µM with SNB-75 CNS; above 127 µM in the assay with KM20L2 colon; above 250 µM in the assay on XF 498 CNS. The TGI in the assay on M19-MEL melanoma, with DMS 273 small cell lung, in the assay with MCF7 breast, in the assay on HL-60(TB) leukemia and with SN12K1 renal was above 250 µM each time.
For `COc1cc(C2c3cc4c(cc3[C@@H](Nc3ccccc3)C3COC(=O)[C@H]23)OCO4)cc(OC)c1O` (stereo partly drawn), the TGI with RPMI-8226 leukemia was 2.23 µM; in the assay on P388/ADR leukemia, 4.59 µM; in the assay with DMS 114 small cell lung, 3.42 µM; in the assay with SNB-75 CNS, 7.97 µM; in the assay with KM20L2 colon, above 23.3 µM; with XF 498 CNS it was 7.84 µM. The TGI was 16.6 µM in the assay on M19-MEL melanoma; 3.35 µM with DMS 273 small cell lung; above 41.2 µM in the assay with MCF7 breast; 1.09 µM in the assay with HL-60(TB) leukemia; 8.65 µM in the assay on SN12K1 renal.
Take `O=C(NCCCl)O/N=C/c1cccnc1`: the TGI in the assay on RPMI-8226 leukemia, with P388/ADR leukemia, with DMS 114 small cell lung, with SNB-75 CNS, with KM20L2 colon and in the assay with XF 498 CNS was above 100 µM throughout. Further, the TGI in the assay with M19-MEL melanoma, in the assay on DMS 273 small cell lung, in the assay on MCF7 breast, in the assay with HL-60(TB) leukemia and with SN12K1 renal was above 100 µM throughout. Further, the GI50 in the assay with SNB-75 CNS and in the assay on KM20L2 colon was above 100 µM each time.
In the case of `CCOC(=O)CNC(=O)NC12CC3CC(CC(C3)C1)C2`, the TGI is above 550 µM with RPMI-8226 leukemia; above 550 µM in the assay on P388/ADR leukemia; above 511 µM in the assay on DMS 114 small cell lung; 408 µM in the assay on SNB-75 CNS; above 550 µM in the assay on KM20L2 colon; 246 µM with XF 498 CNS. The TGI with M19-MEL melanoma was 369 µM; in the assay on DMS 273 small cell lung, above 550 µM; in the assay on MCF7 breast, 505 µM; in the assay on HL-60(TB) leukemia, 543 µM; with SN12K1 renal it was 503 µM.
Regarding `O[C@H]1[C@H](O)[C@@H](O)CN2CC[C@H](O)[C@H]12`, the TGI in the assay with RPMI-8226 leukemia, in the assay on P388/ADR leukemia, in the assay with DMS 114 small cell lung, in the assay on SNB-75 CNS, with KM20L2 colon and in the assay on XF 498 CNS was above 100 µM in each case. Moreover, the TGI in the assay on M19-MEL melanoma is above 79.4 µM; with DMS 273 small cell lung, above 100 µM; in the assay with MCF7 breast, above 100 µM; in the assay on HL-60(TB) leukemia it was above 39.8 µM; in the assay with SN12K1 renal, above 100 µM.
With `CCOC(=O)/C=C1/C(CCCOCc2ccccc2)C2CCCC23CC2(CCN13)OCCO2` (stereo not drawn), the TGI was 25 µM in the assay on RPMI-8226 leukemia; 32.9 µM in the assay on DMS 114 small cell lung; above 100 µM in the assay on TK-10 renal; 9.41 µM in the assay on SNB-75 CNS; 56 µM in the assay with KM20L2 colon; 26.8 µM in the assay on XF 498 CNS. Besides, the TGI in the assay on M19-MEL melanoma came to 40 µM; with DMS 273 small cell lung, 37.9 µM; in the assay on HL-60(TB) leukemia, 30 µM.
In the case of `O=C(NN1C(=O)CS(=O)(=O)C1c1ccc(C(F)(F)F)cc1)c1ccncc1` (stereo not drawn), the TGI with RPMI-8226 leukemia, with DMS 114 small cell lung, with TK-10 renal, in the assay on SNB-75 CNS, in the assay on XF 498 CNS and in the assay on DMS 273 small cell lung was above 100 µM throughout. Moreover, the TGI with HL-60(TB) leukemia is above 100 µM.
`N#Cc1sc2c(c1OC(=O)c1ccc(C(F)(F)F)cc1)c(=O)n(-c1ccccc1)c(=S)n2-c1ccccc1`: the TGI in the assay on RPMI-8226 leukemia is 45.9 µM; in the assay on TK-10 renal, above 100 µM; in the assay with SNB-75 CNS it was 85.7 µM; with MCF7 breast it was above 100 µM; in the assay on HL-60(TB) leukemia, 46.1 µM; with DU-145 prostate, above 100 µM.
